Columns and labels:
[1] = system: IL-6 production; test: LPS-induced IL-6 production model test; type: in vivo, C57BL/6J mice; settings: Mus musculus, 1 h; 10 mg/kg oral, 30 min before LPS 1 mg/kg i.p., serum IL-6 60 min after LPS, mice
Protocol: In order to evaluate the inhibitory activity of inflammatory cytokine production in the present compounds, LPS-induced IL-6 production model evaluation was carried out. The specific method is described below.
An appropriate amount of each compound was weighed, triturated with an agate mortar, and suspended or dissolved in 1% methyl cellulose solution to prepare 1 mg/mL solution.
C57BL/6J mice (male, Purchaser: Charles River Laboratories Japan, Inc.) were weighted, before divided into normal group, control group and each compound-administered group based on the measured body weight using a random number, wherein each group contained 6 samples. The mice were manually held in hands and forced orally administered the 1% methyl cellulose solution (normal and control group) or each administration solution comprising the compound (each compound-administered group) at a dose of 10 mL/kg into stomach using a feeding needle. After 30 minutes from administration of the 1% methyl cellulose solution or each compound administration solution, the mice were manually held in hands and intraperitoneally administered physiological saline (normal group) or LPS solution (control and each compound-administered group) at a dose of 1 mg/kg. After 60 minutes from administration of the LPS solution, whole blood was collected from the abdominal vena cava of each mouse under isoflurane inhalation anesthesia (available from Mylan Seiyaku Ltd.), and the mice were euthanized. The collected blood was allowed to stand at room temperature for one hour, and then centrifuged at 1,500 G for 10 minutes to collect a serum (supernatant). The collected serum was stored in a deep freezer set at −80° C. until the measurement of IL-6 in the serum. The IL-6 concentration in the serum of each mouse was measured by a commercially available kit (available from R&D systems, Cat No. M6000B), according to the protocol attached thereto.
The IL-6 production inhibition rate (%) was calculated by the following equation using Microsoft EXCEL 2010. IL-6 production inhibition rate (%)=100−{(average value of IL-6 concentration in serum of each compound-administered group)−(average value of IL-6 concentration in serum of normal group))/(average value of IL-6 concentration in serum of control group)−(average value of IL-6 concentration in serum of normal group)}×100

[2] = system: NF-κB; test: NF-κB reporter gene assay (TNF-α stimulated A549/NF-κB-luc cells); type: cell-based; settings: Homo sapiens, TNF-α stimulation
Summary of the method: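 A549 cells stably carrying an NF-κB luciferase reporter were preincubated with compound for 1 h, then stimulated with TNF-α for 3 h. Luminescence was read with Steady-Glo, and inhibition was scaled between blank and DMSO control wells. IC50 was obtained by curve fitting.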

[3] = biological target: Recombinant BRD4 (44-168) protein (Homo sapiens (Human), UniProt O60885); test: BRD4-H4KAc4 binding assay (amplified luminescence proximity homogeneous assay, AlphaScreen); settings: 10 uM
Summary of the method: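 His/FLAG-tagged BRD4 (44-168) and biotinylated tetra-acetylated H4 peptide, each added as 250 nM solutions, incubated with compound 60 min at room temperature in the dark, then AlphaScreen beads 60 min. Emission 520-620 nm at 680 nm excitation, duplicates; % inhibition from blank- and DMSO-corrected signal.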

Row | Structure (SMILES) | inhibition in vivo at 10 mg/kg [1] [%] | IC50 [2] [nM] | inhibition at 10 µM [3] [%]
1 | COc1ncccc1CN1N=C(c2ccc(Cl)cc2)c2c(sc(C)c2C)-n2c(C)nnc21 [Example 49, 4-(4-chlorophenyl)-6-((2-methoxypyridin-3-yl)methyl)-2,3,9-trimethyl-6H-thieno[2,3-e][1,2,4]triazolo[3,4-c][1,2,4]triazepine] | 17.9 | 197 | 100
2 | Cc1nnc2n1-c1sccc1C(c1ccc(Cl)cc1)=NN2Cc1ccccc1 [Example 60, 6-benzyl-4-(4-chlorophenyl)-9-methyl-6H-thieno[2,3-e][1,2,4]triazolo[3,4-c][1,2,4]triaz epine] |  | 1690 | 100
3 | Cc1nnc2n1-c1sccc1C(c1ccc(Cl)cc1)=NN2Cc1cccnc1 [Example 61, 4-(4-chlorophenyl)-9-methyl-6-(pyridin-3-ylmethyl)-6H-thieno[2,3-e][1,2,4]triazolo[3,4-c][1,2,4]triazepine] |  | 377 | 100
4 | Cc1nnc2n1-c1sccc1C(c1ccc(Cl)cc1)=NN2Cc1ccncc1 [Example 63, 4-(4-chlorophenyl)-9-methyl-6-(pyridin-4-ylmethyl)-6H-thieno[2,3-e][1,2,4]triazolo[3,4-c][1,2,4]triazepine] |  | 5240 | 100
5 | COc1cccc(CN2N=C(c3ccc(Cl)cc3)c3ccsc3-n3c(C)nnc32)c1 [Example 64, 4-(4-chlorophenyl)-6-(3-methoxybenzyl)-9-methyl-6H-thieno[2,3-e][1,2,4]triazolo[3,4-c][1,2,4]triazepine] |  | 5490 | 100
6 | COc1ccc(CN2N=C(c3ccc(Cl)cc3)c3cc(C)sc3-n3c(C)nnc32)cc1 [Example 65, 4-(4-chlorophenyl)-6-(4-methoxybenzyl)-2,9-dimethyl-6H-thieno[2,3-e][1,2,4]triazolo[3,4-c][1,2,4]triazepine] |  | 896 | 100
7 | Cc1sc2c(c1C)C(c1ccc([N+](=O)[O-])cc1)=NN(Cc1cccnc1)c1nnc(C)n1-2 [Example 70, 2,3,9-trimethyl-4-(4-nitrophenyl)-6-(pyridin-3-ylmethyl)-6H-thieno[2,3-e][1,2,4]triazolo[3,4-c][1,2,4]triazepine] |  | 1830 | 100
8 | Cc1sc2c(c1C)C(c1cccc(Cl)c1)=NN(Cc1cccnc1)c1nnc(C)n1-2 [Example 73, 4-(3-chlorophenyl)-2,3,9-trimethyl-6-(pyridin-3-ylmethyl)-6H-thieno[2,3-e][1,2,4]triazolo[3,4-c][1,2,4]triazepine] |  | 246 | 100
9 | COc1ccccc1C1=NN(Cc2cccnc2)c2nnc(C)n2-c2sc(C)c(C)c21 [Example 74, 4-(2-methoxyphenyl)-2,3,9-trimethyl-6-(pyridin-3-ylmethyl)-6H-thieno[2,3-e][1,2,4]triazolo[3,4-c][1,2,4]triazepine] |  | 2140 | 100
10 | COc1cccc(C2=NN(Cc3cccnc3)c3nnc(C)n3-c3sc(C)c(C)c32)c1 [Example 75, 4-(3-methoxyphenyl)-2,3,9-trimethyl-6-(pyridin-3-ylmethyl)-6H-thieno[2,3-e][1,2,4]triazolo[3,4-c][1,2,4]triazepine] |  | 1930 | 100
11 | Cc1sc2c(c1C)C(c1ccc(Cl)cc1)=NN(Cc1cccnc1C#N)c1nnc(C)n1-2 [Example 77, 3-((4-(4-chlorophenyl)-2,3,9-trimethyl-6H-thieno[2,3-e][1,2,4]triazolo[3,4-c][1,2,4]triazepin-6-yl)methyl)picolinonitrile] |  | 1950 | 100
12 | Cc1sc2c(c1C)C(c1ccc(Cl)cc1)=NN(Cc1cccnc1C(F)(F)F)c1nnc(C)n1-2 [Example 78, 4-(4-chlorophenyl)-2,3,9-trimethyl-6-((2-(trifluoromethyl)pyridin-3-yl)methyl)-6H-thieno[2,3-e][1,2,4]triazolo[3,4-c][1,2,4]triazepine] |  | 1260 | 100
13 | Cc1sc2c(c1C)C(c1ccc(Cl)cc1)=NN(Cc1cccnc1Br)c1nnc(C)n1-2 [Example 79, 6-((2-bromopyridin-3-yl)methyl)-4-(4-chlorophenyl)-2,3,9-trimethyl-6H-thieno[2,3-e][1,2,4]triazolo[3,4-c][1,2,4]triazepine] |  | 742 | 100
14 | Cc1sc2c(c1C)C(c1ccc(Cl)cc1)=NN(Cc1cccnc1[N+](=O)[O-])c1nnc(C)n1-2 [Example 80, 4-(4-chlorophenyl)-2,3,9-trimethyl-6-((2-nitropyridin-3-yl)methyl)-6H-thieno[2,3-e][1,2,4]triazolo[3,4-c][1,2,4]triazepine] |  | 1110 | 100
15 | Cc1sc2c(c1C)C(c1ccc(Cl)cc1)=NN(Cc1cccnc1N)c1nnc(C)n1-2 [Example 81, 3-((4-(4-chlorophenyl)-2,3,9-trimethyl-6H-thieno[2,3-e][1,2,4]triazolo[3,4-c][1,2,4]triazepin-6-yl)methyl)pyridin-2-amine] |  | 47.2 | 100
16 | CC(=O)Nc1ncccc1CN1N=C(c2ccc(Cl)cc2)c2c(sc(C)c2C)-n2c(C)nnc21 [Example 82, N-(3-((4-(4-chlorophenyl)-2,3,9-trimethyl-6H-thieno[2,3-e][1,2,4]triazolo[3,4-c][1,2,4]triazepin-6-yl)methyl)pyridin-2-yl)acetamide] |  | 135 | 100
17 | COC(=O)c1ncccc1CN1N=C(c2ccc(Cl)cc2)c2c(sc(C)c2C)-n2c(C)nnc21 [Example 83, methyl 3-((4-(4-chlorophenyl)-2,3,9-trimethyl-6H-thieno[2,3-e][1,2,4]triazolo[3,4-c][1,2,4]triazepin-6-yl)methyl)picolinate] |  | 2820 | 100
18 | Cc1sc2c(c1C)C(c1ccc(Cl)cc1)=NN(Cc1cccnc1CO)c1nnc(C)n1-2 [Example 86, (3-((4-(4-chlorophenyl)-2,3,9-trimethyl-6H-thieno[2,3-e][1,2,4]triazolo[3,4-c][1,2,4]triazepin-6-yl)methyl)pyridin-2-yl)methanol] |  | 95.3 | 100
19 | CCOc1ncccc1CN1N=C(c2ccc(Cl)cc2)c2c(sc(C)c2C)-n2c(C)nnc21 [Example 87, 4-(4-chlorophenyl)-6-((2-ethoxypyridin-3-yl)methyl)-2,3,9-trimethyl-6H-thieno[2,3-e][1,2,4]triazolo[3,4-c][1,2,4]triazepine] |  | 1390 | 100
20 | Cc1sc2c(c1C)C(c1ccc(Cl)cc1)=NN(Cc1cc(F)cnc1F)c1nnc(C)n1-2 [Example 88, 4-(4-chlorophenyl)-6-((2,5-difluoropyridin-3-yl)methyl)-2,3,9-trimethyl-6H-thieno[2,3-e][1,2,4]triazolo[3,4-c][1,2,4]triazepine] |  | 631 | 100
21 | COc1ncc(F)cc1CN1N=C(c2ccc(Cl)cc2)c2c(sc(C)c2C)-n2c(C)nnc21 [Example 89, 4-(4-chlorophenyl)-6-((5-fluoro-2-methoxypyridin-3-yl)methyl)-2,3,9-trimethyl-6H-thieno[2,3-e][1,2,4]triazolo[3,4-c][1,2,4]triazepine] |  | 556 | 100
22 | Cc1sc2c(c1C)C(c1ccccc1)=NN(Cc1cccnc1F)c1nnc(C)n1-2 [Example 90, 6-((2-fluoropyridin-3-yl)methyl)-2,3,9-trimethyl-4-phenyl-6H-thieno[2,3-e][1,2,4]triazolo[3,4-c][1,2,4]triazepine] |  | 298 | 100
23 | Cc1sc2c(c1C)C(c1ccc(N)cc1)=NN(Cc1cccnc1)c1nnc(C)n1-2 [Example 92, 4-(2,3,9-trimethyl-6-(pyridin-3-ylmethyl)-6H-thieno[2,3-e][1,2,4]triazolo[3,4-c][1,2,4]triazepin-4-yl)aniline] | 71 | 34.2 | 
24 | CC(=O)Nc1ccc(C2=NNc3nnc(C)n3-c3sc(C)c(C)c32)cc1 [Example 94, N-(4-(2,3,9-trimethyl-6H-thieno[2,3-e][1,2,4]triazolo[3,4-c][1,2,4]triazepin-4-yl)phenyl)acetamide] | 45.7 | 96 | 

Source: patent US11186588B2 (AYUMI PHARMACEUTICAL CORPORATION, priority 2017, dated 2021)
